The values that follow come from patent US20210361741A1, “NANOPARTICLE FORMULATIONS AND METHODS OF USE FOR ALPHA CONNEXIN C-TERMINAL PEPTIDES” (FIRSTSTRING RESEARCH, INC., priority 2018, published 2021).

For this test, the system named is U87MG GBM cells. Put plainly: Xenograft GBM mouse model. It counts as in vivo. Conditions: TMZ alone, 7.5 mg/kg i.p. every other day. The procedure:
Effect of αCT1-NP in a xenograft GBM mouse model. To assess the in vivo safety and efficacy of αCT1-NPs, a mouse xenograft model of GBM was employed U87MG GBM cells were cultured and 1×10^6 cells were mixed with 100 μL of Matrigel® Matrix and subcutaneously injected into the flanks of SCID/beige anesthetized mice using 23 gauge needles. After 8 days, mice were divided into 2 groups: (i) TMZ alone, and (ii) TMZ+αCT1 particles. The treatment regimen was as follows: TMZ (7.5 mg/kg) was administered by intraperitoneal injection with an insulin syringe every other day starting on day 8 for both groups 1 and 2 mice. αCT1 particles were reconstituted in 1×PBS from −80° C. storage and 100 uL aliquots were prepared and stored at −20° C. The concentration of αCT1 delivered in 1 dose of particles (100 uL) was approximately 8 μM at 1.2 mg particles/kg of mouse body weight. αCT1 particles were delivered at the tumor growth site every other day starting on day 10 for group 2 mice using insulin syringes. Group 2 mice received a total of 6 injections of particles during the course of treatment. This treatment regimen continued for 13 days. Tumor sizes were measured every other day using a caliper. Tumor volume was calculated ((length×width2)/2).

On to `Cn1nnc2c(C(N)=O)ncn2c1=O` [TMZ, temozolomide], for which the tumor volume result is given as “no effect”.
